Results from patent US5070210A, “Novel ketenimines as intermediates for insecticides” (ICI Americas Inc., priority 1990, dated 1991).

Legend:
Format in all cases: in vivo
[1] = tested on: Tobacco Budworm [Heliothis virescens (Fabricius)] eggs; assay: Tobacco budworm egg test; conditions: 2-day old eggs, percent in solution
How it was run: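 Mortality of dipped eggs served as read-out, recorded after untreated controls hatched and began feeding. Treatments used acetone solutions from 0.1% downward, with eggs incubated at 78° F; LC50 is expressed as percent of compound in the solution.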

[2] = tested on: Maize weevil [Sitophilus Zeamais (Motschulsky)]; assay: Maize weevil insecticidal test; conditions: adult weevils, percent in solution; 48 hours
Experimental: The compounds in Tables 1 and 2 above were tested for insecticidal activity using the following testing procedures. LC50 values, based on the results of these tests and calculated according to dosage-mortality curves, are expressed in Table 3.
Maize weevil [Sitophilus Zeamais (Motschulsky)]:
Test compounds were diluted in a 50:50 acetone:water solution. Four corn seeds [Zea mays (L.)] which had been immersed in test solutions for 2-3 seconds and allowed to dry were placed in containers together with 10 adult weevils. The containers were covered and kept at a temperature of about 25° C. Mortality was recorded after 48 hours. Test concentrations ranged from 0.01% down to that at which 50% mortalilty occurred. The LC50 values are expressed below in Table 3 under the heading "MW" in terms of percent of the test compound in solution.

[3] = tested on: Housefly [Musca domestica]; assay: Housefly insecticidal test; conditions: μg per 25 female flies; mortality after 48 hours
How it was run: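 LC50, as μg compound per 25 female flies, comes from dosage-mortality curves with doses from 100 μg downward. Residues were made by evaporating acetone plus 0.01% peanut oil in dishes, onto which 1-2-day-old females were caged; deaths were counted after 48 hours.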

[4] = tested on: Cabbage Looper [Trichoplusia ni (Hubner)]; assay: Cabbage looper insecticidal test; conditions: second-instar larvae, percent in solution; 3-5 days
How it was run: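 Steps: dilute compound in 50-50 acetone-water from 0.1% downward; immerse cotyledon pieces 2-3 s and dry; place in humid petri dishes with five second-instar larvae; record mortality at 3-5 days. Dosage-mortality curves yield LC50 as percent in solution.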

Compound: Clc1ccc(N=C(OCc2cccc(Oc3ccccc3)c2)C2CCC2)cc1 [Compound 8]
- LC50, TBW, E (TBW-E) [1]: > 0.1%
- LC50, MW [2]: > 0.01%
- LC50, HF [3]: 50 µg
- LC50, CL [4]: 0.01%

Compound: CC(C)C(=Nc1ccc(F)c(Br)c1)OCc1cccc(Oc2ccccc2)n1 [Compound 558]
- LC50, TBW, E (TBW-E) [1]: > 0.1%
- LC50, MW [2]: > 0.01%
- LC50, HF [3]: < 100 µg
- LC50, CL [4]: 0.00045%

Compound: CC(C)C(=Nc1cccc(C(F)(F)F)c1)OCc1cc(Oc2ccccc2)ccn1 [Compound 506]
- LC50, TBW, E (TBW-E) [1]: > 0.1%
- LC50, MW [2]: > 0.01%
- LC50, HF [3]: 40 µg
- LC50, CL [4]: 0.005%

Compound: COc1cc(N=C(OCc2cccc(Oc3ccccc3)c2)C(C)C)c(OC)cc1Cl [Compound 99]
- LC50, TBW, E (TBW-E) [1]: > 0.1%
- LC50, HF [3]: > 100 µg
- LC50, CL [4]: 0.016%

Compound: CC(C)C(=Nc1ccc(F)c(Cl)c1)OC(C)c1cccc(Oc2ccccc2)n1 (stereo not drawn) [Compound 498]
- LC50, TBW, E (TBW-E) [1]: > 0.1%
- LC50, HF [3]: 49 µg
- LC50, CL [4]: 0.002%

Compound: CCCCC(=Nc1ccc(F)c(Cl)c1)OCc1cccc(Oc2ccccc2)c1 [Compound 121]
- LC50, TBW, E (TBW-E) [1]: > 0.1%
- LC50, HF [3]: > 100 µg
- LC50, CL [4]: 0.1%

Compound: CCC(=Nc1ccc(F)cc1F)OCc1cccc(Oc2ccccc2)c1 [Compound 59]
- LC50, TBW, E (TBW-E) [1]: > 0.1%
- LC50, HF [3]: 25 µg
- LC50, CL [4]: 0.02%

Compound: Cc1cc(N=C(OCc2cccc(Oc3ccccc3)c2)C(C)C)ccc1F [Compound 87]
- LC50, TBW, E (TBW-E) [1]: 0.03%
- LC50, HF [3]: 5 µg
- LC50, CL [4]: 0.004%

Compound: CC(C)C(=Nc1ccc(C2CCCCC2)cc1)OCc1cccc(Oc2ccc(F)cc2)c1 [Compound 280]
- LC50, TBW, E (TBW-E) [1]: > 0.1%
- LC50, HF [3]: > 100 µg
- LC50, CL [4]: 0.024%

Compound: CC(C)C(=Nc1ccc(F)cc1)OCc1cccc(Oc2ccc(F)cc2F)c1 [Compound 206]
- LC50, TBW, E (TBW-E) [1]: > 0.1%
- LC50, HF [3]: 50 µg
- LC50, CL [4]: 0.0017%

Compound: CC(C)C(=Nc1ccc(Br)c(Br)c1)OCc1cccc(Oc2ccccc2)c1 [Compound 252]
- LC50, TBW, E (TBW-E) [1]: 0.04%
- LC50, HF [3]: 34 µg
- LC50, CL [4]: 0.0035%

Compound: CCCC(=Nc1ccc(F)c(Cl)c1)OCc1cccc(Oc2ccccc2)c1 [Compound 123]
- LC50, TBW, E (TBW-E) [1]: > 0.1%
- LC50, HF [3]: > 100 µg
- LC50, CL [4]: 0.012%

Compound: CC(C)C(=Nc1ccc(F)c(F)c1)OCc1coc(Cc2ccccc2)c1 [Compound 485]
- LC50, TBW, E (TBW-E) [1]: > 0.1%
- LC50, HF [3]: 24 µg
- LC50, CL [4]: > 0.1%

Compound: CC(C)(C)C(=Nc1cccc(Cl)c1)OCc1cccc(Oc2ccccc2)c1 [Compound 12]
- LC50, TBW, E (TBW-E) [1]: > 0.1%
- LC50, HF [3]: > 100 µg
- LC50, CL [4]: 0.008%

Compound: Cc1ccc(N=C(OCc2cccc(Oc3ccccc3)c2)C(C)(C)C)cc1Cl [Compound 107]
- LC50, TBW, E (TBW-E) [1]: > 0.1%
- LC50, HF [3]: > 100 µg
- LC50, CL [4]: 0.007%

Compound: CC(C)C(=Nc1ccc(Cl)cc1)OCc1coc(Cc2ccccc2)c1 [Compound 484]
- LC50, TBW, E (TBW-E) [1]: > 0.1%
- LC50, HF [3]: 16 µg
- LC50, CL [4]: 0.003%

Compound: CC(C)(F)C(=Nc1ccc(F)c(Cl)c1)OCc1cccc(Oc2ccc(F)cc2)c1 [Compound 309]
- LC50, TBW, E (TBW-E) [1]: 0.07%
- LC50, HF [3]: > 100 µg
- LC50, CL [4]: 0.00017%

Compound: CC(C)C(=Nc1ccc(Cl)c(C(F)(F)F)c1)OCc1cccc(Oc2cccc(F)c2)c1 [Compound 195]
- LC50, TBW, E (TBW-E) [1]: > 0.1%
- LC50, HF [3]: > 100 µg
- LC50, CL [4]: 0.002%

Compound: CC(C)CC(=Nc1ccc(C(C)C)cc1)OCc1cccc(Oc2ccc(F)cc2)c1 [Compound 329]
- LC50, TBW, E (TBW-E) [1]: > 0.1%
- LC50, HF [3]: 7 µg
- LC50, CL [4]: 0.033%

Compound: COc1cccc(N=C(OCc2cccc(Oc3ccc(F)cc3)c2)C(C)C)c1 [Compound 201]
- LC50, TBW, E (TBW-E) [1]: > 0.1%
- LC50, HF [3]: 15 µg
- LC50, CL [4]: 0.004%

Compound: CC(C)C(=Nc1ccc(F)c(Cl)c1)OCc1cccc(OCc2ccccc2)c1 [Compound 472]
- LC50, TBW, E (TBW-E) [1]: > 0.1%
- LC50, HF [3]: > 100 µg
- LC50, CL [4]: 0.0025%

Compound: CC(C)C(=Nc1ccc2c(c1)CCO2)OCc1cccc(Oc2ccccc2)c1 [Compound 243]
- LC50, TBW, E (TBW-E) [1]: > 0.1%
- LC50, HF [3]: 9 µg
- LC50, CL [4]: 0.005%

Compound: COc1cc(N=C(OCc2cccc(Oc3ccccc3)c2)C(C)C)cc(C(F)(F)F)c1 [Compound 76]
- LC50, TBW, E (TBW-E) [1]: 0.05%
- LC50, HF [3]: 20 µg
- LC50, CL [4]: 0.002%

Compound: COc1ccc(N=C(OCc2cccc(Oc3ccccc3)c2)C(C)C)cc1OC [Compound 169]
- LC50, TBW, E (TBW-E) [1]: > 0.1%
- LC50, HF [3]: 10 µg
- LC50, CL [4]: 0.009%

Compound: CCC(=Nc1ccc(C(C)C)cc1)OCc1cccc(Oc2ccc(F)cc2)c1 [Compound 320]
- LC50, TBW, E (TBW-E) [1]: > 0.1%
- LC50, HF [3]: > 100 µg
- LC50, CL [4]: 0.0075%

Compound: Cc1ccc(Oc2cccc(COC(=Nc3cccc(C(F)(F)F)c3)C(C)C)n2)cc1 [Compound 495]
- LC50, TBW, E (TBW-E) [1]: 0.1%
- LC50, HF [3]: > 100 µg
- LC50, CL [4]: 0.012%

Compound: CC(C)C(=Nc1ccc(F)cc1)OCc1cccc(Oc2ccc(F)c(F)c2)c1 [Compound 265]
- LC50, TBW, E (TBW-E) [1]: 0.07%
- LC50, HF [3]: 10 µg
- LC50, CL [4]: 0.00025%

Compound: CC(C)C(=Nc1cccc(C(F)(F)F)c1)OCc1cccc(OCc2ccc(F)cc2)c1 [Compound 489]
- LC50, TBW, E (TBW-E) [1]: > 0.1%
- LC50, HF [3]: > 100 µg
- LC50, CL [4]: < 0.1%

Compound: CC(C)C(=Nc1ccc(C(C)(C)C)cc1)OCc1cccc(Oc2ccccc2)n1 [Compound 496]
- LC50, TBW, E (TBW-E) [1]: > 0.1%
- LC50, HF [3]: > 100 µg
- LC50, CL [4]: 0.006%

Compound: CCC(CC)C(=Nc1ccc(C(C)C)cc1)OCc1cccc(Oc2ccccc2)c1 [Compound 321]
- LC50, TBW, E (TBW-E) [1]: > 0.1%
- LC50, HF [3]: > 100 µg
- LC50, CL [4]: 0.05%

Compound: CC(=O)c1cccc(N=C(OCc2cccc(Oc3ccccc3)c2)C(C)C)c1 [Compound 170]
- LC50, TBW, E (TBW-E) [1]: > 0.1%
- LC50, HF [3]: 37 µg
- LC50, CL [4]: 0.1%

Compound: CCOc1ccc(N=C(OCc2cccc(Oc3ccccc3)c2)C(C)(C)C)cc1 [Compound 164]
- LC50, TBW, E (TBW-E) [1]: > 0.1%
- LC50, HF [3]: > 100 µg
- LC50, CL [4]: 0.005%

Compound: Cc1ccc(Oc2cccc(COC(=Nc3ccc(F)c(Cl)c3)C(C)C)n2)cc1 [Compound 494]
- LC50, TBW, E (TBW-E) [1]: > 0.1%
- LC50, HF [3]: 34 µg
- LC50, CL [4]: 0.003%

Compound: CC(C)C(=Nc1ccc(F)cc1)OCc1coc(Cc2ccccc2)c1 [Compound 491]
- LC50, TBW, E (TBW-E) [1]: 0.08%
- LC50, HF [3]: 9 µg
- LC50, CL [4]: 0.0028%

Compound: CC(C)(C)C(=Nc1cccc([N+](=O)[O-])c1)OCc1cccc(Oc2ccccc2)c1 [Compound 175]
- LC50, TBW, E (TBW-E) [1]: > 0.1%
- LC50, HF [3]: > 100 µg
- LC50, CL [4]: 0.018%

Compound: CC(C)C(=Nc1cccc(C(F)(F)F)c1)OCc1ccc(OCc2ccc(F)cc2)cc1 [Compound 488]
- LC50, TBW, E (TBW-E) [1]: > 0.1%
- LC50, HF [3]: > 100 µg
- LC50, CL [4]: 0.025%

Compound: CC(C)C(=Nc1ccc2c(c1)OCO2)OCc1ccc(F)c(Oc2ccc(Cl)cc2)c1 [Compound 313]
- LC50, TBW, E (TBW-E) [1]: 0.013%
- LC50, HF [3]: > 100 µg
- LC50, CL [4]: 0.00025%

Compound: CC(C)C(=Nc1c(Br)cc(F)cc1Br)OCc1cccc(Oc2ccccc2)c1 [Compound 130]
- LC50, TBW, E (TBW-E) [1]: > 0.1%
- LC50, HF [3]: > 100 µg
- LC50, CL [4]: 0.005%

Compound: CC(C)C(=Nc1ccc(Cl)cc1Cl)OCc1cccc(Oc2ccccc2)c1 [Compound 311]
- LC50, TBW, E (TBW-E) [1]: 0.1%
- LC50, HF [3]: 22 µg
- LC50, CL [4]: 0.0017%

Compound: Cc1ccc(N=C(OCc2cccc(Oc3ccccc3)c2)C(C)C)c(Cl)c1 [Compound 94]
- LC50, TBW, E (TBW-E) [1]: 0.075%
- LC50, HF [3]: 44 µg
- LC50, CL [4]: 0.0045%

Compound: CC(C)C(=Nc1ccc(Cl)cc1Cl)OCc1cccc(Oc2ccc(F)cc2)c1 [Compound 312]
- LC50, TBW, E (TBW-E) [1]: > 0.1%
- LC50, HF [3]: > 100 µg
- LC50, CL [4]: 0.006%

Compound: CC(C)C(=Nc1cccc(OC(F)(F)C(F)F)c1)OCc1cccc(Oc2ccc(F)cc2)c1 [Compound 288]
- LC50, TBW, E (TBW-E) [1]: > 0.1%
- LC50, HF [3]: > 100 µg
- LC50, CL [4]: 0.0015%

Compound: COc1ccc(Oc2cccc(COC(=Nc3ccc(F)cc3)C(C)C)c2)cc1 [Compound 220]
- LC50, TBW, E (TBW-E) [1]: > 0.1%
- LC50, HF [3]: 85 µg
- LC50, CL [4]: 0.007%

Compound: Cc1cc(Br)ccc1N=C(OCc1cccc(Oc2ccccc2)c1)C(C)C [Compound 133]
- LC50, TBW, E (TBW-E) [1]: 0.1%
- LC50, HF [3]: 66 µg
- LC50, CL [4]: 0.005%

Compound: CC(C)(Cl)C(=Nc1ccc(Cl)c2ccccc12)OCc1cccc(Oc2ccccc2)c1 [Compound 111]
- LC50, TBW, E (TBW-E) [1]: > 0.1%
- LC50, HF [3]: > 100 µg
- LC50, CL [4]: 0.1%
